Measurements: US8592484B2, “Cosmetic composition containing calcium citrate and N-acylated aminoalcohol derivative to prevent dry skin and signs of cutaneous ageing” (Cognis IP Management GmbH, priority 2009, dated 2013)
Values joined by “and” are separate entries in the source; they are usually repeats but may differ in a detail not shown here. Equal entries are not always repeated. Marks after values point to notes of the source that are not given here.

How the values were obtained:
human keratinocytes [1] = experiment: MTT test, viability of human keratinocytes; type: cell-based; details: at the concentrations tested for involucrin
Experimental: (§1) Human keratinocytes were seeded in growth medium (standard medium MCDB153 completed by Fetal Calf Serum at 2%). After 3-4 days of incubation at 37° C., CO2=5%, the growth medium was exchanged by standard medium MCDB153 without FCS (untreated control), and with a range of concentrations of products to be tested. After 1 day of incubation at 37° C., CO2=5%, the lack of cytotoxicity of the different product and doses tested was recorded using MTT test, and the level of involucrin was measured by an ELISA method.

human keratinocytes [2] = experiment: Keratinocyte differentiation: involucrin by ELISA in primary culture of human keratinocytes; type: cell-based; details: for effect on the synthesis of the keratinocyte differentiation marker involucrin (in words): at the tested concentrations; for Involucrin (in % +/− SEM): 1 day incubation
Experimental: The purpose was to evaluate the potential of the products to stimulate the differentiation of human keratinocytes into corneocytes and therefore the formation of an optimal skin barrier. The products were tested on primary culture of human keratinocytes by measuring the quantity of synthesized involucrin through an ELISA method. Involucrin is a rod shaped protein of 68 kD released by keratinocytes of early spinous layers up to granular layer of human epidermis.
as §1
The results are expressed in % versus control and presented as a mean+/−SEM (standard error of mean) of 2 or 3 assays (different donors of keratinocytes) in duplicate or triplicate.

ceramidase = experiment: Ceramidase inhibition, enzymatic extract of PMA-activated HL60 cells, [14C]-C16 ceramide substrate; type: biochemical; details: 1 hour at 37° C., mean of triplicate
Experimental: HL60 cells activated with Phorbol 12-myristate 13-acetate (PMA) at 5 nM were cultured in 175 cm^2 flasks. […] The supernatant obtained after centrifugation constituted the enzymatic extract.
The substrate [^14C]—C16 ceramide (N-palmitoyl-D-Sphingosine) was prepared as follows:
Evaporation of the organic phase and dissolution in distilled water. […] After evaporation and addition of Triton and cholate, the purified substrate was solubilised in distilled water.
The reaction mixture was incubated at 37° C. during 1 hour. The reaction mixture consisted of 5 μl MgCl2 (50 mM), 25 μl enzymatic extract or buffer; 7.5 μl substrate and 12.5 μl product to be tested. The products to be tested were prepared 4× concentrated in buffer at the tested pH and contained 1% of ethanol in final.
The quantification of enzymatic degradation of substrate was realized by measuring of radioactivity in heptane phase. […] The mixture was vortexed and centrifuged at 12 000 g 5 minutes. […] Results are expressed as the % of control.

SMILES | viability (MTT test) of the human keratinocytes (human keratinocytes [1]) | effect on the synthesis of the keratinocyte differentiation marker involucrin (in words) (human keratinocytes [2]) | Ceramidase activity in %/control (ceramidase; dose 5 μM) | Ceramidase activity in %/control (ceramidase; dose 50 μM) | Ceramidase activity in %/control (ceramidase; dose 500 μM) | further results
O.O.O.O.O=C([O-])CC(O)(CC(=O)[O-])C(=O)[O-].O=C([O-])CC(O)(CC(=O)[O-])C(=O)[O-].[Ca+2].[Ca+2].[Ca+2] [Tricalcium dicitrate tetrahydrate, Tricalcium citrate tetrahydrate] | not significantly changed | significantly enhance |  |  |  | effect on keratinocytes differentiation compared with Calcium chloride (human keratinocytes [2]; at equimolar doses of Ca2+, p<0.001 for Ca2+ 0.026 and 0.1 mM): more potent; Involucrin (in % +/− SEM) (human keratinocytes [2]; dose 0.0044 mM, 0.00025 % w/v (Ca2+: 0.013 mM)): 0.5 +/− 2.6^ % and 0.5 +/− 2.6%; Involucrin (in % +/− SEM) (human keratinocytes [2]; dose 0.0088 mM, 0.00050 % w/v (Ca2+: 0.026 mM)): 31.6 +/− 2.9 *** %; Involucrin (in % +/− SEM) (human keratinocytes [2]; dose 0.033 mM (Ca2+: 0.1 mM)): 73.4 +/− 3.7 *** %; Involucrin (in % +/− SEM) (human keratinocytes [2]; tricalcium dicitrate dose 0.1 mM (Ca2+ 0.3 mM)): 101.7 +/− 7.2 *** %
CCCCCCCC/C=C\CCCCCCCCNCC(O)CO (stereo not shown) [N-oleyl-(3 amino-1,2-propanediol)] |  |  | 81% | 78% | 71% | 
[Ca+2].[Cl-].[Cl-] [CaCl2, Calcium chloride, reference compound] | not significantly changed | significantly enhance |  |  |  | Involucrin (in % +/− SEM) (human keratinocytes [2]; CaCl2 dose 0.1 mM (Ca2+: 0.1 mM)): 21.9 +/− 5.3 ** %; Involucrin (in % +/− SEM) (human keratinocytes [2]; dose 0.013 mM (Ca2+: 0.013 mM)): 3.4 +/− 4.6^ %; Involucrin (in % +/− SEM) (human keratinocytes [2]; dose 0.026 mM (Ca2+: 0.026 mM)): −1.4 +/− 4.6 ^ %; Involucrin (in % +/− SEM) (human keratinocytes [2]; dose 0.3 mM (Ca2+ 0.3 mM)): 84.4 +/− 1.9 *** %
CCCCCCCC/C=C\CCCCCCCCNCCO [N-Oleyl-ethanolamine, reference compound] |  |  | 98% | 94% | 79% | 
